The text below walks through data of ChEMBL document CHEMBL3046666, “Design, synthesis, and biological evaluation of benzofuran derivatives as ET receptor antagonists” (Med Chem Res, 2013).

Structures are written as SMILES. Activity calls are given as the source filed them. The calls are words filed in the database; no cut-off is given here. Square brackets hold non-standard residues; d marks the D form. Peptide text beside a SMILES is read from it.

The subject of assay [1] is Rattus norvegicus. The experiment in a line: Antihypertensive activity in hypoxic pulmonary arterial Sprague-Dawley Rattus norvegicus (rat) model assessed as decrease in hypoxia-induced central vein pressure at 10 mg/kg, po administered for 28 days measured on day 29 by hemodynamic analyzer relative to untreated control. It counts as functional, organism-based. Details: dose 10 mg/kg. The conditions noted are these: Artery.

The subject of assay [2] is Rattus norvegicus. The experiment in a line: Antihypertensive activity in hypoxic pulmonary arterial Sprague-Dawley Rattus norvegicus (rat) model assessed as decrease in hypoxia-induced right ventricular systolic pressure at 10 mg/kg, po administered for 28 days measured on day 29 by hemodynamic analyzer relative to untreated control. It counts as functional, organism-based. Details: dose 10 mg/kg. The following applies: Heart right ventricle.

Assay [3] deals with T1, Endothelin-1 receptor (Rattus norvegicus) (UniProt P26684).
T1 sequence (whole entry): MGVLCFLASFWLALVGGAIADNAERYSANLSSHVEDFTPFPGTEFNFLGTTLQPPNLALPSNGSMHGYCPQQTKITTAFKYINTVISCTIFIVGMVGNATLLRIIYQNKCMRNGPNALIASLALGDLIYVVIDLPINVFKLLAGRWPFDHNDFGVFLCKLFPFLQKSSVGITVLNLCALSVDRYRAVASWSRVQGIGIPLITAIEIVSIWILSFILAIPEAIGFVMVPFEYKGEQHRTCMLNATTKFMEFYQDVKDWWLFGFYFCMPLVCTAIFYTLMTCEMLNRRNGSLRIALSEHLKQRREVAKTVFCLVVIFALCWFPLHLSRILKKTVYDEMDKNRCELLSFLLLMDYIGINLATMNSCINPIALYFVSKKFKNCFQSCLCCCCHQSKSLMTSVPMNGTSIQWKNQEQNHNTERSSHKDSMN
The experiment in a line: Antagonist activity at ETA receptor in Sprague-Dawley Rattus norvegicus (rat) thoracic aortic ring assessed as inhibition of ET1-induced thoracic aortic ring contraction at 10 uM after 30 min relative to control.

Assay [4] has as its target T2, Endothelin receptor type B (Rattus norvegicus, UniProt P21451).
T2 sequence (P21451 whole entry): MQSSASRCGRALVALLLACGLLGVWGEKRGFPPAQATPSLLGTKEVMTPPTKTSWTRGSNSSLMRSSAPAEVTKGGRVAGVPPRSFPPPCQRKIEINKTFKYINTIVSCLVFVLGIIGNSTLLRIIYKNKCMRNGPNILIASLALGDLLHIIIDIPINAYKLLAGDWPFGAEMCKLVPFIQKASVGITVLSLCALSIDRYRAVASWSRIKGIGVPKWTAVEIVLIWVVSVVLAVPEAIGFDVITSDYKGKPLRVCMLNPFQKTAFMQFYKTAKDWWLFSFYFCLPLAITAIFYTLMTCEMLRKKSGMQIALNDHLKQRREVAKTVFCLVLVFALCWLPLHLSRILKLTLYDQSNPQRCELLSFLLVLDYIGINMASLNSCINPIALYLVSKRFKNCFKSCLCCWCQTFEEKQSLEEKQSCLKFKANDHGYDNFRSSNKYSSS
Description: Displacement of [125I]ET-1 from ETB receptor in Sprague-Dawley Rattus norvegicus (rat) myocardium after 1 hr. (In general: Loss of bound radioactivity is the signal in a displacement assay; it reports binding, not function.)

The target in assay [5] is T3, Endothelin-1 receptor (Rattus norvegicus, UniProt P26684).
T3 sequence (P26684 whole entry): T1 sequence (whole entry)
The experiment in a line: Displacement of [125I]ET-1 from ETA receptor in Sprague-Dawley Rattus norvegicus (rat) myocardium after 1 hr.

For assay [6], the species on record is Rattus norvegicus. Description: Selectivity Rattus norvegicus (rat)io of IC50 for ETB receptor in Sprague-Dawley Rattus norvegicus (rat) myocardium to IC50 for ETA receptor in Sprague-Dawley Rattus norvegicus (rat) myocardium. It counts as tissue-based.
In assay [7] the target is T4, Endothelin-1 receptor (Homo sapiens, UniProt P25101).
T4 sequence (P25101 whole entry): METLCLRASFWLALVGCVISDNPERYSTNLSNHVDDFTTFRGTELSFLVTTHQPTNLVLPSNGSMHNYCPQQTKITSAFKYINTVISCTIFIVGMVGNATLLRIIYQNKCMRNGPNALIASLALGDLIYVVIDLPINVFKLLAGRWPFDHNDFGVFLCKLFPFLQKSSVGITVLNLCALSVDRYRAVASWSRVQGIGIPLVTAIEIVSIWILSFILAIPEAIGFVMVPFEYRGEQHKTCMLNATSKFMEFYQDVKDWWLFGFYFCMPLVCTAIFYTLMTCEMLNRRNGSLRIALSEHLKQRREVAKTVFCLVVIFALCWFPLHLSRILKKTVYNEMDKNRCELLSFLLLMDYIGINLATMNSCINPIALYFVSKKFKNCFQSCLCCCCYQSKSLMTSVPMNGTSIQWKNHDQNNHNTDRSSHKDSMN
Description: Antagonist activity at Homo sapiens (human) ETA receptor.

Assay [8] relates to Rattus norvegicus. Description: Antihypertensive activity in po dosed hypoxic pulmonary arterial Sprague-Dawley Rattus norvegicus (rat) model assessed as decrease in hypoxia-induced central vein pressure administered for 28 days measured on day 29 by hemodynamic analyzer relative to untreated control. The assay is classed as functional, organism-based. The following applies: Artery.

In assay [9] the test system is Rattus norvegicus. The experiment in a line: Antihypertensive activity in po dosed hypoxic pulmonary arterial Sprague-Dawley Rattus norvegicus (rat) model assessed as decrease in hypoxia-induced right ventricular systolic pressure administered for 28 days measured on day 29 by hemodynamic analyzer relative to untreated control. The assay is classed as functional, organism-based. The conditions noted are these: Heart right ventricle.

The target of assay [10] is T4, Endothelin-1 receptor. The experiment in a line: Antagonist activity at ETA receptor (unknown origin).

Turning to `COC(=O)C1=C(C)NC(C)=C(C(=O)OC)C1c1ccccc1[N+](=O)[O-]`, the result with Rattus norvegicus [1] and in the assay with Rattus norvegicus [2] was Active.

With `Cc1c(C(=O)O)oc2cccc(OC(C(=O)O)c3ccccc3)c12` (stereo not drawn), the inhibition in assay [3] is 29%.

Consider `Cc1c(C(=O)O)oc2cccc(OCc3ccc4nsnc4c3)c12`, for which the IC50 in [4] was found to be 930 nM; on Endothelin-1 receptor [5] it was 23 nM. For the same compound, the inhibition in assay [3] was found to be 82.2%. Besides, the Ratio IC50 in the assay filed under Rattus norvegicus [6] is 40.

On to `Cc1c(C(=O)O)oc2cccc(OCCOc3cccc(Cl)c3)c12`, for which the inhibition in assay [3] turned out to be 21.7%.

Consider `Cc1ccc(OCCOc2cccc3oc(C(=O)O)c(C)c23)cc1`, for which the inhibition in [3] stood at 40.8%.

Consider `Cc1c(C(=O)O)oc2cccc(OCc3ccc4nonc4c3)c12`, for which the IC50 in [4] worked out at 1070 nM; on Endothelin-1 receptor [5] it was 39 nM. Also, in assay [3], the inhibition worked out at 70%. Also, the Ratio IC50 in the assay filed under Rattus norvegicus [6] stood at 27.

On to `Cc1c(C(=O)O)oc2cccc(OC/C=C/c3ccccc3)c12`, for which the inhibition in assay [3] was 50%.

As for `CCCOc1cccc2oc(C(=O)O)c(C)c12`, the inhibition in assay [3] was 69.7%.

As to `CCCCOc1cccc2oc(C(=O)O)c(C)c12`, the inhibition in [3] was 56.7%.

For `CC(C)C[C@@H]1NC(=O)[C@@H](C(C)C)NC(=O)[C@@H]2CCCN2C(=O)[C@@H](CC(=O)O)NC(=O)[C@@H](Cc2c[nH]c3ccccc23)NC1=O` [BQ-123] (cyclo(L[dW][dD]P[dV])), the IC50 at Endothelin-1 receptor [5] was determined as 28 nM; at Endothelin-1 receptor [7], 37 nM. Moreover, the inhibition in [3] was 68.1%.

In the case of `Cc1c(C(=O)O)oc2cccc(OCCN3CCCC3)c12`, the inhibition in assay [3] was 34.1%. The Activity entry in the assay with Rattus norvegicus [8] and in the assay with Rattus norvegicus [9] was “Dose-dependent effect” each time.

Take `CCOc1cccc2oc(C(=O)O)c(C)c12`: in assay [3], the inhibition was 61%.

For the compound `CCCCCOc1cccc2oc(C(=O)O)c(C)c12`, in [3], the inhibition was 46.8%.

With `COc1cccc2oc(C(=O)O)c(C)c12`, half-maximal inhibition at Endothelin-1 receptor [10] (IC50) required 11000 nM.

`Cc1c(C(=O)O)oc2cccc(OC(CCC(=O)O)c3ccccc3)c12` (stereo not drawn): the inhibition in assay [3] was found to be 44%.

For the compound `Cc1c(C(=O)O)oc2cccc(OCc3ccccc3)c12`, in assay [3], the inhibition stood at 40.7%. Half-maximal inhibition against Endothelin-1 receptor [10] (IC50) required 3800 nM.

By inhibition is commonly meant the relative decrease from the control value, in per cent. As a reminder, the IC50 is the concentration that inhibits the measured activity by half. Lower therefore signals greater potency.
